This note sets out measurements from ChEMBL document CHEMBL3580597 (J Med Chem, 2015).

pIC50, pKd, pKi: −log10 of the molar value.

The target of experiment [1] is T1, Bromodomain-containing protein 2 (Homo sapiens, UniProt P25440). Nature of the experiment: Binding affinity to biotinylated BRD2 BD1 (72 to 205 amino acid residues) (unknown origin) expressed in Rosetta2 DE3 cells by bio-layer interferometry method.
Experiment [2] has as its target T1, Bromodomain-containing protein 2. Nature of the experiment: Displacement of FAM-labeled ZBA248 from BRD2 BD1 (72 to 205 amino acid residues) (unknown origin) expressed in Rosetta2 DE3 cells after 30 mins by fluorescence polarization assay. A general note: In fluorescence polarisation assays a small probe gives low polarisation when free and higher when bound to something large.

The target in experiment [3] is T2, ATPase family AAA domain-containing protein 2 (Homo sapiens, UniProt Q6PL18).
T2 sequence (Q6PL18 whole entry): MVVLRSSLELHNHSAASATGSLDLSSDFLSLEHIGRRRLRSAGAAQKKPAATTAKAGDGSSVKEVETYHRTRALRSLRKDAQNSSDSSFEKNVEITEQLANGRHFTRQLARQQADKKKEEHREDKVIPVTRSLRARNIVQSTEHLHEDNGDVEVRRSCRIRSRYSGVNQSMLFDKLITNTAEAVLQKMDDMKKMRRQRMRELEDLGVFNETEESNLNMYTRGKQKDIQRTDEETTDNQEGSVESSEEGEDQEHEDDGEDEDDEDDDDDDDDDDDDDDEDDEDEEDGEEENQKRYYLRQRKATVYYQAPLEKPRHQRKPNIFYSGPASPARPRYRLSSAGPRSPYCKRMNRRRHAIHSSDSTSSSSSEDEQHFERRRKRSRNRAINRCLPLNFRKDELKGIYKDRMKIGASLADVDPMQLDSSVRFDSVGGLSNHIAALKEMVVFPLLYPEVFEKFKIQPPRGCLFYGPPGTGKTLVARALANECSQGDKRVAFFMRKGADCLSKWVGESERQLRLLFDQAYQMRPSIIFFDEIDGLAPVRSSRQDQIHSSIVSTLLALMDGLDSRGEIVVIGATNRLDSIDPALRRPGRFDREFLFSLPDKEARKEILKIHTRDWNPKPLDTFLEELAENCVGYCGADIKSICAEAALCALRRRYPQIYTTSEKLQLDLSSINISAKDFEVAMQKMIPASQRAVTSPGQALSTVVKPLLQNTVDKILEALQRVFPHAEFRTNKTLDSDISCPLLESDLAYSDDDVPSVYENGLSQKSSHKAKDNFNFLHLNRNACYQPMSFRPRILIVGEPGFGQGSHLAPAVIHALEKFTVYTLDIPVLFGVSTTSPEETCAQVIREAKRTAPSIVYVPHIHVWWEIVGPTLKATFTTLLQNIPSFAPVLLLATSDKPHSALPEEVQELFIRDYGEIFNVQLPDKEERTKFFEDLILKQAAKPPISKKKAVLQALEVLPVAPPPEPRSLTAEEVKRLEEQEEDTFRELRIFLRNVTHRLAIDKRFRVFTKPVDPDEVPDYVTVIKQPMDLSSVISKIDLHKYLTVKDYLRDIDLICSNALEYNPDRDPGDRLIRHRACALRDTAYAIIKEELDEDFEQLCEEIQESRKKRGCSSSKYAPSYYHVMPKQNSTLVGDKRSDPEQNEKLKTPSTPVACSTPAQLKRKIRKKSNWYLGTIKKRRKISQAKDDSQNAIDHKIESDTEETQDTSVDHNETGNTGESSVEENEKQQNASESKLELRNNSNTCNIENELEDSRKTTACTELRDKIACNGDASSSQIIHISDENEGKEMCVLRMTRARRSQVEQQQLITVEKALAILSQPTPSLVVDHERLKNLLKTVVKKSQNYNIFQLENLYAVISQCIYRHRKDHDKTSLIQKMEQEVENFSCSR
Nature of the experiment: Binding affinity to biotinylated ATAD2A (981 to 1108 amino acid residues) (unknown origin) expressed in Rosetta2 DE3 cells by bio-layer interferometry method.

In experiment [4] the target is T1, Bromodomain-containing protein 2. Briefly: Binding affinity to biotinylated BRD2 BD2 (349 to 460 amino acid residues) (unknown origin) expressed in Rosetta2 DE3 cells by bio-layer interferometry method. (BLI is a label-free optical method that tracks binding on a fibre tip over time.)
Another experiment deals with Protein polybromo-1 (Homo sapiens, UniProt Q86U86). Nature of the experiment: Binding affinity to biotinylated PB1BR5 (645 to 766 amino acid residues) (unknown origin) expressed in Rosetta2 cells by bio-layer interferometry method.
For the next experiment, the system named is K562. Briefly: cells. It is filed as functional, cell-based. The conditions noted are these: Homo sapiens, K562, 96 h.
The target in experiment [5] is Bromodomain-containing protein 4 (Homo sapiens, UniProt O60885). Nature of the experiment: Displacement of FAM-labeled ZBA248 from BRD4 BD2 (333 to 460 amino acid residues) (unknown origin) expressed in Rosetta2 DE3 cells after 30 mins by fluorescence polarization assay.
Experiment [6] concerns the target Bromodomain adjacent to zinc finger domain protein 2B (Homo sapiens, UniProt Q9UIF8). Nature of the experiment: Binding affinity to biotinylated BAZ2B (2054 to 2168 amino acid residues) (unknown origin) expressed in Rosetta2 DE3 cells by bio-layer interferometry method.
Experiment [7] concerns the target Transcription initiation factor TFIID subunit 1 (Homo sapiens, UniProt P21675). Briefly: Binding affinity to biotinylated TAF1B2 (155 to 276 amino acid residues) (unknown origin) expressed in Rosetta2 cells by bio-layer interferometry method.

T1 sequence (P25440 whole entry, the tested form may be a part): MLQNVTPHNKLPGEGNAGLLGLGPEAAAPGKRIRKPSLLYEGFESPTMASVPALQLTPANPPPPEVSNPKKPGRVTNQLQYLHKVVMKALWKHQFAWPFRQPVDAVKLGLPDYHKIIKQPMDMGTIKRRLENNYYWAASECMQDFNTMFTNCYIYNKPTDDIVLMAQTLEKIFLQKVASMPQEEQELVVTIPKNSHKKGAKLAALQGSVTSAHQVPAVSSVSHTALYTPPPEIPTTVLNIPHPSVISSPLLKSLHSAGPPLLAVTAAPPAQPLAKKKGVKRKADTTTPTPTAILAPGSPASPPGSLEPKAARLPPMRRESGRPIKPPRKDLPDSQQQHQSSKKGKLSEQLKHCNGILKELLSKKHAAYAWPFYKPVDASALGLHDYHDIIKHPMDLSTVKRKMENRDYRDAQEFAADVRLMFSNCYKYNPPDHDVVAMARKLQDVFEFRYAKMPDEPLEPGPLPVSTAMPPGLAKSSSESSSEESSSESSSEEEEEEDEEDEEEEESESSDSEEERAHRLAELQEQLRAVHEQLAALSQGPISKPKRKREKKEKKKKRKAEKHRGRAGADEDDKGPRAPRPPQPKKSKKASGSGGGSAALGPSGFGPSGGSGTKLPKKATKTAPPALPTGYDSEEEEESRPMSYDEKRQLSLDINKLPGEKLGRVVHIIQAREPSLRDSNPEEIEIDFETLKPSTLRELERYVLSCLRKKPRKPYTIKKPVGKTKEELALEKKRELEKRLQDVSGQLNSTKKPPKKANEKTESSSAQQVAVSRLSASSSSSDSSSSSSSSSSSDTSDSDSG
Sequence of Bromodomain adjacent to zinc finger domain protein 2B (Q9UIF8 whole entry, the tested form may be a part): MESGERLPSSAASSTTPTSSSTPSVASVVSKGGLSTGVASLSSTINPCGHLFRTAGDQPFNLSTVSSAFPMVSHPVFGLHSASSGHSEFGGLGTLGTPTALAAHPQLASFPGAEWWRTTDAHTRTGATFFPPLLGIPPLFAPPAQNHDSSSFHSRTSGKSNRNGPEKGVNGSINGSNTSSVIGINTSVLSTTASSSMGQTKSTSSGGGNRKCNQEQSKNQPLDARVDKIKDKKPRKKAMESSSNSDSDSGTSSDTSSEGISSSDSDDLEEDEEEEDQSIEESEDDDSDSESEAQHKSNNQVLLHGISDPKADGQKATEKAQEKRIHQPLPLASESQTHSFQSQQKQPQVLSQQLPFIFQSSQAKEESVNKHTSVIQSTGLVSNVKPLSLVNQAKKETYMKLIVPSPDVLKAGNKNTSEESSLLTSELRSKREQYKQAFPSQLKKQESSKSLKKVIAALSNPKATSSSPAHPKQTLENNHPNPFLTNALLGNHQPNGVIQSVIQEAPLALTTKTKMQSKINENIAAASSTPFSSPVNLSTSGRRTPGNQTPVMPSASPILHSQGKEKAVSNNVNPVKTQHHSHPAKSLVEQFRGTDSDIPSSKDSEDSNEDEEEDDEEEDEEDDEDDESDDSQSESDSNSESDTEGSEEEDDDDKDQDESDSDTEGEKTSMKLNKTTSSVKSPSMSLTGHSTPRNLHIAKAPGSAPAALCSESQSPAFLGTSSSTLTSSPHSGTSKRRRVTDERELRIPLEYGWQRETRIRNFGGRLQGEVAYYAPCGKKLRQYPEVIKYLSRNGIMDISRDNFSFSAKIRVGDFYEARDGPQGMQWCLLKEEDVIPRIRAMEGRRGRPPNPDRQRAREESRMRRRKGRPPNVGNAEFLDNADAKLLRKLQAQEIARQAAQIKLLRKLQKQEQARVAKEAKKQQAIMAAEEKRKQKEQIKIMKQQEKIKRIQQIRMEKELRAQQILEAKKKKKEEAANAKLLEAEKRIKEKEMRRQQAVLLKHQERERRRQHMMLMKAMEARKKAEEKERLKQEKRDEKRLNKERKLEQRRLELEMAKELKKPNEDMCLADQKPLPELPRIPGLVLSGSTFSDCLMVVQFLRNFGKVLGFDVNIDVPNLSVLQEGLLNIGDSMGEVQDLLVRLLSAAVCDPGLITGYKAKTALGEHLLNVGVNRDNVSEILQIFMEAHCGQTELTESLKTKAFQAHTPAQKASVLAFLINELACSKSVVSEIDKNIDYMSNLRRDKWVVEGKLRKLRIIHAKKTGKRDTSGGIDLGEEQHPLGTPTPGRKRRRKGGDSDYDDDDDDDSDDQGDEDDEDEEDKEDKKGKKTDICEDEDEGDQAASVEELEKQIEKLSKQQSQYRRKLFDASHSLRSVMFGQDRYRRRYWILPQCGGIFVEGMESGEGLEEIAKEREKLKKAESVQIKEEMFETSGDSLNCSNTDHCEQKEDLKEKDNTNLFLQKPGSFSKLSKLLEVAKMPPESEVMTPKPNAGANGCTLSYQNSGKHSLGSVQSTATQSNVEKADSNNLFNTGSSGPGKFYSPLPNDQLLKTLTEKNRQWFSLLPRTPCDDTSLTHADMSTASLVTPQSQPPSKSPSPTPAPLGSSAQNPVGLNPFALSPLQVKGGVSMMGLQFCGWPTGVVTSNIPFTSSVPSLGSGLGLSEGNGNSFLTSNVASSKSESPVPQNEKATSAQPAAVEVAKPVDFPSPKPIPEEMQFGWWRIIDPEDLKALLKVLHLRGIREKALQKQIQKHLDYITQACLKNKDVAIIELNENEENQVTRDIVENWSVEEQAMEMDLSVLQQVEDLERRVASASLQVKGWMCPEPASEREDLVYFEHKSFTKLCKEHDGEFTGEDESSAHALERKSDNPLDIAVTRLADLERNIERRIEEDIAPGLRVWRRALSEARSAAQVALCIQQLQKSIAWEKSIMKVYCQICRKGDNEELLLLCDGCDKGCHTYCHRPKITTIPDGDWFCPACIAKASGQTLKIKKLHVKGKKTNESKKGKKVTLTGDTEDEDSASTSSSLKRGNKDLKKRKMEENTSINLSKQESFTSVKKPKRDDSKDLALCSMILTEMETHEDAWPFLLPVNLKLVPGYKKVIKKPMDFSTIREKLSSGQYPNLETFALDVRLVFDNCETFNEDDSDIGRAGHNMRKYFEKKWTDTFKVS
Sequence of Protein polybromo-1 (Q86U86 whole entry, the tested form may be a part): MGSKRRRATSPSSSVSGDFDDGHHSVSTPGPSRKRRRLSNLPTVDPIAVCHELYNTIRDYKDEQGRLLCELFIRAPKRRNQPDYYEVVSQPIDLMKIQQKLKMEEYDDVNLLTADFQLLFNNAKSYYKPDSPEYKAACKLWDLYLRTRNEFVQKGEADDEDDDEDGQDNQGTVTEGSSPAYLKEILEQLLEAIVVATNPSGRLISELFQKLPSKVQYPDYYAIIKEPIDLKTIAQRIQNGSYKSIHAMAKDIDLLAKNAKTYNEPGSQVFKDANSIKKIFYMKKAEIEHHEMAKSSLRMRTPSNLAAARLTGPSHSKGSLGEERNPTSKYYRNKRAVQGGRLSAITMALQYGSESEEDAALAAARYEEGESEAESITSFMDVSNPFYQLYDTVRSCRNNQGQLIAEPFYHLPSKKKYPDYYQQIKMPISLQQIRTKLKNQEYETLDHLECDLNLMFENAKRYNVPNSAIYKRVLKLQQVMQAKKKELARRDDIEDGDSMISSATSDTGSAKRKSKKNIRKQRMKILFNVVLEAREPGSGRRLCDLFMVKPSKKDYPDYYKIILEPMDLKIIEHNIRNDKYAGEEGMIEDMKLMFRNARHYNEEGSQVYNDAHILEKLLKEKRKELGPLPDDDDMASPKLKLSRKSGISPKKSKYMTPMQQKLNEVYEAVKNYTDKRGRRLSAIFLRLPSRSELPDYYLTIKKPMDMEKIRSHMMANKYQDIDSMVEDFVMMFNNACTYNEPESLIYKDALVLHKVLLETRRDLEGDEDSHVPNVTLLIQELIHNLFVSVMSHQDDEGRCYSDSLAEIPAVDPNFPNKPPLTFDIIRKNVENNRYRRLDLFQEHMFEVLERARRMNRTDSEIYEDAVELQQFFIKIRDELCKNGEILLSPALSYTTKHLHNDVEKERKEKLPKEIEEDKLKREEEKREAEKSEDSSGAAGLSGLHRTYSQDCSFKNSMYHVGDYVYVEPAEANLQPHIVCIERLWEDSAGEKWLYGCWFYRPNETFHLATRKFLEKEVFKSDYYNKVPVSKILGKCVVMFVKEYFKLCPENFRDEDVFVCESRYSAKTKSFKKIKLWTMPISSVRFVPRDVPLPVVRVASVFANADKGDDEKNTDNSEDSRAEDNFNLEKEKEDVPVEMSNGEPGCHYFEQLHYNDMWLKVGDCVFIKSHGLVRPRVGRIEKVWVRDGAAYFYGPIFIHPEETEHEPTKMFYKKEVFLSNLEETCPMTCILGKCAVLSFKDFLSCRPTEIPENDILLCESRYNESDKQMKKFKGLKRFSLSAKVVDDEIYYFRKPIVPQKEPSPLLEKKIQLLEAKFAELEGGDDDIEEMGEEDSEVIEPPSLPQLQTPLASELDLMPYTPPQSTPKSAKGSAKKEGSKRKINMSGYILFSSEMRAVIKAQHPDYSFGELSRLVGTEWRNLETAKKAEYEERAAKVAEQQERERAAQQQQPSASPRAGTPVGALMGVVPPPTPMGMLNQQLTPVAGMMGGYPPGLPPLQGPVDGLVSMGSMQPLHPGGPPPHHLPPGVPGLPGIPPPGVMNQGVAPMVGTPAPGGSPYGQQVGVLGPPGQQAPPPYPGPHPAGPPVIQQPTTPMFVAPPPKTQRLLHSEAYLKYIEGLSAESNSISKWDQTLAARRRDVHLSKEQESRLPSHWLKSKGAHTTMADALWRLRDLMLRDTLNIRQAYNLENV

Regarding `COc1cc2c(cc1-c1c(C)noc1C)[nH]c1ccnc(-c3c(C4CC4)n[nH]c3C)c12`, the pKd in experiment [1] is 7.32; in experiment [3], under 5.00; in experiment [4] it was 7.53; at Protein polybromo-1, under 5.00; in experiment [6] it was under 5.00; in experiment [7], under 5.00. For the same molecule, the pKi was 7.95 in experiment [2] and 7.91 in experiment [5]. In addition, the pIC50 in the experiment on K562 is under 5.70; in [5], 7.44.

What is called pKd is the Kd on a negative log10 scale, so that one unit is a factor of ten. Read a low pKd as a large Kd. The term pKi denotes −log10 of the Ki, conventionally taken in molar units. Read a high pKi as a low Ki. One may read the pIC50 as the IC50 on a negative log10 scale, so that one unit is a factor of ten. Low readings indicate a large IC50, high ones a small IC50.
